{"source": "patent US20190125753A1", "about": "“COMPOUNDS AND METHODS FOR INCREASING HEMATOPOIESIS” (University of Southern California, priority 2016, published 2019)", "key": {"bone marrow cells": {"tested_on": "bone marrow cells", "test": "Bone marrow CFC recovery after 7Gy radiation", "type": "in vivo, mouse", "description": "According to particular aspects of the present invention, if YH250 can stimulate 7Gy irradiated animal HSPC proliferation/expansion, the compound may accelerate the recovery of the hematopoiesis from radiation damage. We first tested if YH250 treatment accelerates bone marrow cell CFC activities, the more differentiated cells. After 7Gy radiation and either DMSO or YH250 administration 24 hours post radiation, bone marrow cells were recovered at different time points (day 6, 11, 13, 15 post treatment) and CFC assays were performed (FIG. 19A). […] Consistent with increased colony numbers, there are more cells from plates of YH250 treated cells."}, "[1]": {"target": "T1, interaction between β-catenin and p300 (Mus musculus, UniProt B2RWS6)", "T1 construct": "endogenous in cells; host or cells: mouse myoblast C2C12 cells", "T1 sequence (B2RWS6 2-2412 limits assumed)": "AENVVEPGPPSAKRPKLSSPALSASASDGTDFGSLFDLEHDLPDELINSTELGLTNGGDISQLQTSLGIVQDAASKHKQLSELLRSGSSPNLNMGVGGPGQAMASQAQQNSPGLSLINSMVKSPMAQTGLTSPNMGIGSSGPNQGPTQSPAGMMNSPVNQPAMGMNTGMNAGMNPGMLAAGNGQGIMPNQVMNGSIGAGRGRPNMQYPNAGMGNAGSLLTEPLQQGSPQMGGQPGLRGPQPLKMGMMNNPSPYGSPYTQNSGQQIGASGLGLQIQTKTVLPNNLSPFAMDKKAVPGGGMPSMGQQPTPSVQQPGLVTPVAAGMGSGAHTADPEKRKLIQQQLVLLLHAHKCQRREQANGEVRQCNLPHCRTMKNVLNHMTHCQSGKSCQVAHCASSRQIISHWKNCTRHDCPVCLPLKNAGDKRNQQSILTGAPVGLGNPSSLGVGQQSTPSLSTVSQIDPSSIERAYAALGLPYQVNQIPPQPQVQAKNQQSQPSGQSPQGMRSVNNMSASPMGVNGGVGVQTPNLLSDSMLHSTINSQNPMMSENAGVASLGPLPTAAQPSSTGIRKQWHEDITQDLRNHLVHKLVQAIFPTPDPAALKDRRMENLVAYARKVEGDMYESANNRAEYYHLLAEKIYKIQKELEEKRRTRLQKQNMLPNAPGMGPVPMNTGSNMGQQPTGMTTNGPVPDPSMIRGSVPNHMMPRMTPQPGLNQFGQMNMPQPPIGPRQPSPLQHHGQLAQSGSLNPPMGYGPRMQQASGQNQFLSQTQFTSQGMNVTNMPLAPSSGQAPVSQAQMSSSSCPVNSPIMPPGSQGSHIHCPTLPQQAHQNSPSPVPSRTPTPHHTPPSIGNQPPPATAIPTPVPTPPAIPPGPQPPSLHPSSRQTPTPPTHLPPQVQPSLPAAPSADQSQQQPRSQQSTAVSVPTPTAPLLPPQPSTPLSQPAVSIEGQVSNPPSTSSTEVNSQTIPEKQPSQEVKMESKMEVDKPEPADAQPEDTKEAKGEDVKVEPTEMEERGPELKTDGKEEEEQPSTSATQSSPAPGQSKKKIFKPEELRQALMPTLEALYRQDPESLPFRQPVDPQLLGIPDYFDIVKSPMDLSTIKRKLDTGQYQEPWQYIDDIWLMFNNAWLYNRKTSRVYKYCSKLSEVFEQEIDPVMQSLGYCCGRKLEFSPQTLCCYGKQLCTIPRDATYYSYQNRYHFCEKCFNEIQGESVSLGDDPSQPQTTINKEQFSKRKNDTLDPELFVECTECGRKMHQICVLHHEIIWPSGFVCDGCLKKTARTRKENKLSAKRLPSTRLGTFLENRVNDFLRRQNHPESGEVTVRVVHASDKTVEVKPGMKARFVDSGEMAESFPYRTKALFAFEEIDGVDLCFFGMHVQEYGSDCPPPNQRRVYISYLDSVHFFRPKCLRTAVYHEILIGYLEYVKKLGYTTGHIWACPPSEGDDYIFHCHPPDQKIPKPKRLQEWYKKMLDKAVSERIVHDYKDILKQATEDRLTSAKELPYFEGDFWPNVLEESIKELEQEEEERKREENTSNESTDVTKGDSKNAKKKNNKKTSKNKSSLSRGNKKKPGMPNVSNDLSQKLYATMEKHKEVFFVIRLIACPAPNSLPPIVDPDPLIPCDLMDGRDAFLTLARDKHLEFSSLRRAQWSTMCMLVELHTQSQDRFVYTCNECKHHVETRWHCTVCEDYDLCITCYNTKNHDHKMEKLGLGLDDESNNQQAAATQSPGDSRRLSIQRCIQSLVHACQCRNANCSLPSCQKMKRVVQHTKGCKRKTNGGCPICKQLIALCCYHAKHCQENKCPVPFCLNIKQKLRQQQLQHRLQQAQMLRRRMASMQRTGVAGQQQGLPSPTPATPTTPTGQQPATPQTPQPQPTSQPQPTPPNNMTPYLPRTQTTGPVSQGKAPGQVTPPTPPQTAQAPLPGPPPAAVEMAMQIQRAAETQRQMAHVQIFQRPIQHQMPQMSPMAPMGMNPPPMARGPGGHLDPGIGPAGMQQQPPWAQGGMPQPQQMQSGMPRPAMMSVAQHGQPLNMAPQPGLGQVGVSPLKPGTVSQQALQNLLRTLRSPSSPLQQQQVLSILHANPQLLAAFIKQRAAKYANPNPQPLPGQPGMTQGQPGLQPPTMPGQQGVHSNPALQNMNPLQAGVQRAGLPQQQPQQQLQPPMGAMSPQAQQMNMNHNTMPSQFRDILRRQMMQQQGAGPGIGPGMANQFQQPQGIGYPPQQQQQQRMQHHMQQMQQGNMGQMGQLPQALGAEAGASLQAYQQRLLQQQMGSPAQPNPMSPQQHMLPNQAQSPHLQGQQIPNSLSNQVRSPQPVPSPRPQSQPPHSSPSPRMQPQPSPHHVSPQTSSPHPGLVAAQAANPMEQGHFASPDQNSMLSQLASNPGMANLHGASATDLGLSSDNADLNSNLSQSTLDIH", "test": "Co-immunoprecipitation (pull-down) in C2Cl2 myoblast cells", "type": "cell-based", "settings": "C2Cl2 cells treated 24 hours", "description": "YH249 and YH250 were selected from the compounds described herein for further testing. Co-immunoprecipitation (CO-IP) was performed with mouse myoblast C2Cl2 cells. Cells were treated with DMSO (control), or YH249, or YH250 for 24 hours. Cell lyses were pulled down with anti-p300 or anti-CBP antibodies, run on gel and probed with anti-β-catenin antibody. […] A biotinylated version of YH249 (Bio-249) was prepared via the propargyl amide variant. Using a biotin with a linker and a terminal azide residue, we were able to couple the biotin to the YH249 core via a 3+2 cyclization reaction to provide Bio-249. Bio-249 was incubated with lysates from C2Cl2 myoblasts, either in the presence or absence of competitor YH249 for 4 h at 4° C. and then bound to streptavidin agarose beads. After extensive washing the bound proteins were eluted and run out on an […]."}, "bone marrow HSPC [2]": {"tested_on": "bone marrow HSPC", "test": "HSPC proliferation in 7Gy irradiated mice (BrdU, cell cycle, FACS)", "type": "in vivo, mouse", "description": "YH250 was also tested for stimulation of HSPC (hematopoietic stem/progenitor population) proliferation in irradiated animals. In this study, mice received 7Gy whole body radiation, DMSO or YH250 (s.c., 2 mg/Kg) were administrated 24 hours post radiation, followed with BrdU injection. FIG. 17A depicts the experimental procedure. […] Then, YH250 was administrated to 7Gy irradiated animals and 4 days later, bone marrow cells were isolated for FACS analysis for HSC markers (FIG. 17E)."}, "bone marrow HSPC [3]": {"tested_on": "bone marrow HSPC", "test": "Competitive repopulation assay with bone marrow of 7Gy irradiated mice", "type": "in vivo, mouse", "description": "In the hematopoietic system, the LTR-HSC or pluripotent HSC sits atop the hematopoietic hierarchy. LTR-HSCs subsequently generate “Short Term Repopulating” hematopoietic stem cells (STR-HSC), and then progenitor cells. After radiation induced myeloid-ablation, there is a significant loss of progenitor cells. To investigate the target cell population in irradiated mice, YH250 or DMSO were administrated to 7Gy irradiated animals 24 hours post radiation. Then, 7 or 14 days post radiation (6 or 13 days after YH250 or DMSO administration), bone marrow cells were recovered from animals and competitive repopulation assay was performed to study YH250 function in stimulating HSPC proliferation. 1×10^6 testing bone marrow cells were mixed with 2×10^5 competitor cells (from non-irradiated mice) and injected into lethally irradiated mice (9Gy) (FIG. 18A). HSPC cell number will be reflected in the short-term (1-2 months after BMT) or long-term (≥4 month of BMT) engraftment. […] The same observation also applies to cells isolated 14th day post 7Gy radiation.\nThe expanded LTR-HSC at day 6 post YH250 stimulation then starts to develop and give more STR-HSC by day 14 post radiation. There is no further LTR-HSC expanding from day 6 to day 13 post YH250. Thus, one dose of YH250 administrated 24 hours post 7Gy radiation stimulated symmetric non-differentiation LTR-HSC expansion and followed with STR-HSC expansion."}, "[4]": {"tested_on": "bone marrow stem/progenitor cells", "test": "HSPC proliferation in 5-FU treated animals", "type": "in vivo, mouse", "settings": "5-FU 150 mg/kg, YH250 2 mg/kg 24 hours later, analysed one day later", "description": "p300/-catenin antagonists, such as YH250, were also tested for the ability to stimulate bone marrow stem/progenitor cell proliferation in chemotherapeutic drug-treated (e.g., 5-FU) animals. As depicted in FIG. 24A, animals were given PBS or 5-FU (150 mg/kg). 24 hours later, either DMSO or YH250 (2 mg/kg) were administrated to animals. Then, bone marrow cells were isolated one day later for FACS analysis."}, "bone marrow HSC": {"tested_on": "bone marrow HSC", "test": "Competitive repopulation assay after multi-dose 5-FU", "type": "in vivo, mouse", "settings": "multi-dose YH250 with 5-FU", "text": "At the last round of 5-FU treatment from FIG. 25A, bone marrow cells from survived animals were isolated (CD45.2) and mixed with competitor cells (CD45.1/CD45.2 hybrid) and injected to CD45.1 mice for competitive repopulation assay. This is to assess whether YH250, by multiple uses in this experiment setting, will result in changes of HSC activity and lead to HSC exhaustion (FIG. 26A)."}, "cord blood cells": {"tested_on": "cord blood cells", "test": "Cord blood cell repopulation in NSG mice", "type": "in vivo, human", "settings": "day 57 post BMT", "text": "FIG. 11A depicts the experimental procedure."}, "[5]": {"tested_on": "long-term repopulating HSC", "test": "HSC differentiation assay (LTR-HSC from treated mice co-cultured with GFP bone marrow cells)", "type": "in vivo, mouse", "settings": "2 mg/kg, 24 hours, then 2.5-3 days co-culture", "description": "DMSO or YH250 (2 mg/kg) were administrated to female C57/BL mice. (Mice were purchased from JAX stock#000664 for CD45.2 or Stock#002014 for CD45.1). 24 hours later, long-term repopulating HSC (LTR-HSC, Lin-negt/Sca-1-posit/c-kit-posit/CD34negt/CD135negt/CD48negt/CD150posit cells were purified with fluorescent flow cytometry sorting (FACS). Then, the purified cells were co-cultured with whole bone marrow cells isolated from GFP-transgenic mice (C57BL/6Tg-UBC-GFP, JAX stock#004353), which serves as supporting system in stem cell medium (Stemspan, Stemcell Technologies, Cat#9650) supplemented with SCF (stem cell factor 10 ng/ml) and TPO (thrombopoietin, 10 ng/ml). 2.5-3 days after co-culture, cells were harvested and analyzed for surface markers of CD48 and CD202b (Tie-2) (FIG. 7A)."}, "[6]": {"settings": "bone marrow cells recovered day 7 post radiation"}, "[7]": {"settings": "bone marrow cells recovered day 14 post radiation"}}}
{"smiles": "COc1cccc(CNC(=O)N2C3CN(Cc4cc(Cl)cc(Cl)c4N(C)C)C(=O)[C@H](Cc4ccc(O)cc4)N3C(=O)CN2C)c1OC", "note": "(stereo partly drawn) [YH250]", "values": [{"measurement": "cells from CFC plates", "setting": "bone marrow cells; 7Gy radiation", "value": "more cells"}, {"measurement": "colonies in CFC assay vs DMSO treated mice", "setting": "bone marrow cells; 14th day post 7Gy radiation", "value": "significantly more colonies"}, {"measurement": "β-catenin in the p300 pull down lane", "setting": "[1]", "value": "significantly decreased levels of β-catenin"}, {"measurement": "bone marrow cells in S phase", "setting": "bone marrow HSPC [2]; 7Gy irradiation", "value": "more bone marrow cells in S phase"}, {"measurement": "HSPC (L−CD48−CD150+ cells)", "setting": "bone marrow HSPC [2]; 7Gy, 4 days after administration", "value": "increased HSPC"}, {"measurement": "BrdU positive cells in lineage negative (Lin) population", "setting": "bone marrow HSPC [2]; 7Gy, s.c., 2 mg/Kg 24 hours post radiation", "value": "more BrdUpost cells"}, {"measurement": "long-term engraftment", "setting": "bone marrow HSPC [3]; [6]", "value": "4.1±1.6"}, {"measurement": "short term engraftment", "setting": "bone marrow HSPC [3]; [6]", "value": "5.8±2.4"}, {"measurement": "long-term engraftment", "setting": "bone marrow HSPC [3]; [7]", "value": "3.4±0.57"}, {"measurement": "short term engraftment", "setting": "bone marrow HSPC [3]; [7]", "value": "12.3±2.0"}, {"measurement": "engraftment vs DMSO treated animals, short term and long term", "setting": "bone marrow HSPC [3]; cells recovered 7th day post 7Gy radiation, one dose 24 hours post radiation", "value": "better engraftment"}, {"measurement": "Lin-CD48-CD150+ cell numbers vs DMSO", "setting": "[4]", "value": "significantly higher"}, {"measurement": "lineage negative cell numbers vs DMSO", "setting": "[4]", "value": "significantly higher"}, {"measurement": "lineage bias in short-term and long-term repopulation", "setting": "bone marrow HSC", "value": "no lineage bias"}, {"measurement": "human CD34+ cells in bone marrow vs DMSO treated cells", "setting": "cord blood cells; in vitro treated cells", "value": "more human CD34+ cells in bone marrow"}, {"measurement": "donor cell engraftment in blood", "setting": "cord blood cells; pre-incubation in vitro 24 hours before BMT", "value": "best engraftment in blood"}, {"measurement": "CD48posit cells vs DMSO", "setting": "[5]; p=0.010", "value": "significantly less"}, {"measurement": "non-differentiated CD48negt/CD202bposit cells vs DMSO", "setting": "[5]; p=0.04", "value": "significantly more"}]}
